Test results from US8415469B2, “Compounds and methods for kinase modulation, and indications therefor” (Plexxikon Inc., priority 2005, dated 2013).
pIC50: −log10 of the molar value.

Legend:
Type in all cases: biochemical
c-Raf-1 = biological target: T1, c-Raf-1 (Homo sapiens, UniProt P04049); assay: AlphaScreen kinase assay, c-Raf-1; details: read-out: IC50, activity toward kinase c-Raf-1
T1 construct: purchased Upstate Biotechnology

Src = biological target: T2, Src (Homo sapiens, UniProt P12931); assay: AlphaScreen kinase assay, Src; details: read-out: IC50, activity toward kinase Src
T2 construct: P1144. pET-N6 BI-PTP SRC V86-L536-X; made in house

Jnk1 = biological target: T3, Jnk1 (Homo sapiens, UniProt P45983); assay: AlphaScreen kinase assay, Jnk1; details: read-out: IC50, activity toward kinase Jnk1
T3 construct: purchased Upstate Biotechnology

Fak = biological target: T4, Fak (Homo sapiens, UniProt Q05397); assay: AlphaScreen kinase assay, Fak; details: read-out: IC50, activity toward kinase Fak
T4 construct: P1358.pFastBacHtb FAK S411-Q686-X; His6 with pFastBacHTb leader (TEV site) (N); made in house; host or cells: Sf9 (baculovirus)

Flt1 = biological target: T5, Flt1 (Homo sapiens, UniProt P17948); assay: AlphaScreen kinase assay, Flt1; details: read-out: IC50, activity toward kinase Flt1
T5 construct: P1826.pETN6 BI-PTP FLT1 M799-D1165-X WT; His6 (N); made in house; host or cells: E. coli (PTP1B co-expressed)
T5 sequence (P17948 with tags, fused parts or gaps): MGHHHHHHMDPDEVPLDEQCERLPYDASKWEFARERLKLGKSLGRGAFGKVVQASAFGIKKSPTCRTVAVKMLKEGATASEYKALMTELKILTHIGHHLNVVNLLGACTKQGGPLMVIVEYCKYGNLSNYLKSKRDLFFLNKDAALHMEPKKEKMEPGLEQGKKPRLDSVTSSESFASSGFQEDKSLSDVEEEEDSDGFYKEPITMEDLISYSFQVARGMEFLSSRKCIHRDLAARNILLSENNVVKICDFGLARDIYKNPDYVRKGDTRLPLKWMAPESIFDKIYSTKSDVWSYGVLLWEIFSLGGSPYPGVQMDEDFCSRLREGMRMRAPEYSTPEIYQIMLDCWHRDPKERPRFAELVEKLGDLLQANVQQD

Measured: pIC50

T1 sequence (P04049 whole entry): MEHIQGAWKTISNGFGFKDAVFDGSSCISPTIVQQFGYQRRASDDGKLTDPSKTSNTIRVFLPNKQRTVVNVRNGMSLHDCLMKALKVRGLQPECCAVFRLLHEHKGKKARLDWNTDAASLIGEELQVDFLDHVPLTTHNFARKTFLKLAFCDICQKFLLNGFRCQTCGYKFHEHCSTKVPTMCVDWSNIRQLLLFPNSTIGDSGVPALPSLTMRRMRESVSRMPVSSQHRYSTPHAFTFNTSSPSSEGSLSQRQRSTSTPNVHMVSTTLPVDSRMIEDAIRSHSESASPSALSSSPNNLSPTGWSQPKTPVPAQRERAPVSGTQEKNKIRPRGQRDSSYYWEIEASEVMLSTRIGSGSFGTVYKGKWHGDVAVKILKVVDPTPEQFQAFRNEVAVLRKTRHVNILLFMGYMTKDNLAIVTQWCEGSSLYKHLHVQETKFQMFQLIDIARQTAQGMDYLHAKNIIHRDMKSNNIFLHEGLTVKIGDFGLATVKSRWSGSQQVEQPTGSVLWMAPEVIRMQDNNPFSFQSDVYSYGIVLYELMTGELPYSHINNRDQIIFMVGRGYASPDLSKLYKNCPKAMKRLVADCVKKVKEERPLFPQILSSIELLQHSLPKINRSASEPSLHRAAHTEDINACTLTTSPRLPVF
T4 sequence (Q05397 411-686): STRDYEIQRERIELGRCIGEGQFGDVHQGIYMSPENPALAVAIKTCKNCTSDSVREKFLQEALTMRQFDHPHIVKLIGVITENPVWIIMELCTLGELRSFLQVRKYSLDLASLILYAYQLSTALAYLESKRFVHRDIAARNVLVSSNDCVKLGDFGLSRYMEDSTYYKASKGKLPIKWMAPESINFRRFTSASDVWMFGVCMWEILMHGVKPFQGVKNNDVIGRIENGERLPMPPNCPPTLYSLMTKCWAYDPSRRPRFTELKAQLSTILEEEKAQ
T2 sequence (P12931 with tags, fused parts or gaps): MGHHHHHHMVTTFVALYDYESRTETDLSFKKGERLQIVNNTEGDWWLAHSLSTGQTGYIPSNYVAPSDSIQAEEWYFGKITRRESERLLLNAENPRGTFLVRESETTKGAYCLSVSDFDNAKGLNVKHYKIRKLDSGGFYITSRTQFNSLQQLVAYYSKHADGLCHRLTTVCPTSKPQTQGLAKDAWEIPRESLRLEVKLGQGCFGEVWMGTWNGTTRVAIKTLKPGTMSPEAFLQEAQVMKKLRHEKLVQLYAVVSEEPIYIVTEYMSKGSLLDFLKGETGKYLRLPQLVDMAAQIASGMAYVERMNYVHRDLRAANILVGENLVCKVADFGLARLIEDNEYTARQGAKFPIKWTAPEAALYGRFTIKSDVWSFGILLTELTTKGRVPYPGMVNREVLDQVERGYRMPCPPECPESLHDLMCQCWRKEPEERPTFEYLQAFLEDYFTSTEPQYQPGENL
T3 sequence (P45983 whole entry): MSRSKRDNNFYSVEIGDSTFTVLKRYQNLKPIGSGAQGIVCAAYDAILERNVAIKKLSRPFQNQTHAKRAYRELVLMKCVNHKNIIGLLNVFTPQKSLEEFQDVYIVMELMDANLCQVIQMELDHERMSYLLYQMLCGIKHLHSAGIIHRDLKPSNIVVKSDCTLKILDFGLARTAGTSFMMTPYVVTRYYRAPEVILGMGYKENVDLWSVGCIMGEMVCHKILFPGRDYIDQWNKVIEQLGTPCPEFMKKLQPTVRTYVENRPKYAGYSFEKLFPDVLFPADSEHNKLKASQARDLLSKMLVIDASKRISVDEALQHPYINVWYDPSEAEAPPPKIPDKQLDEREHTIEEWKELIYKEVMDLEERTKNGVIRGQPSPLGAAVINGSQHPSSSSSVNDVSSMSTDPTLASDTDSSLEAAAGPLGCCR

Cc1c(O)cccc1C(=O)c1c[nH]c2ncc(-c3cccnc3)cc12 [Compound P-0006, (3-Hydroxy-2-methyl-phenyl)-(5-pyridin-3-yl-1H-pyrrolo[2,3b]pyridin-3-yl)-methanone]
not listed: Flt1
≥ 5.00: all other assays above

CS(=O)(=O)c1cccc(-c2cnc3[nH]cc(C(=O)c4cc(O)ccc4F)c3c2)c1 [Compound P-0008, (2-Fluoro-5-hydroxy-phenyl)-[5-(3-methanesulfonyl-phenyl)-1H-pyrrolo[2,3-b]pyridin-3-yl]-methanone]
≥ 5.00: all assays above

COc1ccc(C(=O)c2c[nH]c3ncc(-c4cccc(/C=C/C(=O)O)c4)cc23)c(Cl)c1 [Compound P-0015]
≥ 5.00: c-Raf-1 | Jnk1

Cc1c(O)cccc1C(=O)c1c[nH]c2ncc(-c3ccccc3)cc12 [Compound P-0016, (3-Hydroxy-2-methyl-phenyl)-(5-phenyl-1H-pyrrolo[2,3b]pyridin-3-yl)-methanone]
≥ 5.00: all assays above

Cc1ccccc1C(=O)c1c[nH]c2nccc(-c3ccc(C(N)=O)cc3)c12 [Compound P-0017]
≥ 5.00: Src | Flt1

O=C(c1ccc(O)cc1Cl)c1c[nH]c2ncccc12 [Compound P-0021]
not listed: Fak
≥ 5.00: all other assays above

CS(=O)(=O)c1cccc(-c2cnc3[nH]cc(C(=O)c4cccc(O)c4F)c3c2)c1 [Compound P-0026, (2-Fluoro-3-hydroxy-phenyl)-[5-(3-methanesulfonylphenyl)1H-pyrrolo[2,3-b]pyridin-3-yl]-methanone]
≥ 5.00: all assays above

O=C(c1cccc(O)c1F)c1c[nH]c2ncc(-c3cccnc3)cc12 [Compound P-0027, (2-Fluoro-3-hydroxy-phenyl)-(5-pyridin-3-yl-1H-pyrrolo[2,3-b]pyridin-3-yl)-methanone]
≥ 5.00: all assays above

CC(=O)Nc1cccc(-c2cnc3[nH]cc(C(=O)c4cccc(O)c4F)c3c2)c1 [Compound P-0035, N-{3-[3-(2-Fluoro-3-hydroxy-benzoyl)-1H-pyrrolo[2,3-b]pyridin-5-yl]-phenyl}-acetamide]
not listed: Flt1
≥ 5.00: all other assays above

O=C(c1cccc(O)c1F)c1c[nH]c2ncc(-c3ccccc3)cc12 [Compound P-0036, (2-fluoro-3-hydroxy-phenyl)-(5-phenyl-1H-pyrrolo[2,3-b]pyridin-3-yl)-methanone]
≥ 5.00: all assays above

CS(=O)(=O)Nc1cccc(-c2cnc3[nH]cc(C(=O)c4cccc(O)c4F)c3c2)c1 [Compound P-0038, N-{3-[3-(2-Fluoro-3-hydroxy-benzoyl)-1H-pyrrolo[2,3-b]pyridin-5-yl]-phenyl}-methanesulfonamide]
not listed: Fak
≥ 5.00: all other assays above

Oc1cccc(Cc2c[nH]c3ncc(-c4cccs4)cc23)c1F [Compound P-0052, 2-Fluoro-3-(5-thiophen-2-yl-1H-pyrrolo[2,3-b]pyridin-3-ylmethyl)-phenol]
≥ 5.00: c-Raf-1 | Jnk1

Cc1c(O)cccc1C(=O)c1c[nH]c2ncc(Br)cc12 [Compound P-0055, (5-Bromo-1H-pyrrolo[2,3-b]pyridin-3-yl)-(3-hydroxy-2-methyl-phenyl)-methanone]
not listed: Jnk1
≥ 5.00: all other assays above

O=C(c1cccc(O)c1F)c1c[nH]c2ncc(Br)cc12 [Compound P-0067, (5-bromo-1H-pyrrolo[2,3-b]pyridin-3-yl)-(2-fluoro-3-hydroxy-phenyl)-methanone]
≥ 5.00: Src | Flt1 | Fak

Oc1ccc(F)c(Cc2c[nH]c3ncc(-c4cccnc4)cc23)c1F [Compound P-0078, 2,4-difluoro-3-(5-pyridin-3-yl-1H-pyrrolo[2,3-b]pyridin-3-ylmethyl)-phenol]
≥ 5.00: all assays above

Cc1c(NS(C)(=O)=O)cccc1C(=O)c1c[nH]c2ncc(-c3ccccc3)cc12 [Compound P-0082, N-[2-Methyl-3-(5-phenyl-1H-pyrrolo[2,3-b]pyridine-3-carbonyl)-phenyl]-methanesulfonamide]
not listed: Fak
≥ 5.00: all other assays above

CCCS(=O)(=O)Nc1ccc(F)c(C(=O)c2c[nH]c3ncc(-c4cccnc4)cc23)c1F [Compound P-0088, Propane-1-sulfonic acid [2,4-difluoro-3-(5-pyridin-3-yl-1H-pyrrolo[2,3-b]pyridine-3-carbonyl)-phenyl]-amide]
≥ 5.00: all assays above

CS(=O)(=O)c1cccc(-c2cnc3[nH]cc(C(=O)c4c(F)ccc(F)c4F)c3c2)c1 [Compound P-0102, [5-(3-Methanesulfonyl-phenyl)-1H-pyrrolo[2,3-b]pyridin-3-yl]-(2,3,6-trifluoro-phenyl)-methanone]
not listed: Flt1
≥ 5.00: all other assays above

Cc1c(O)cccc1C(=O)c1c[nH]c2ncc(-c3cccs3)cc12 [Compound P-0114, (3-Hydroxy-2-methyl-phenyl)-(5-thiophen-2-yl-1H-pyrrolo[2,3b]pyridin-3-yl)-methanone]
≥ 5.00: all assays above

CN(C)S(=O)(=O)Nc1ccc(F)c(Cc2c[nH]c3ncc(-c4cccnc4)cc23)c1F [Compound P-0166]
not listed: Jnk1
≥ 5.00: all other assays above

O=C(Nc1ccc(Cc2c[nH]c3ncccc23)cc1)Nc1cccc(C(F)(F)F)c1 [Compound P-0262, 1-[4-(1H-Pyrrolo[2,3-b]pyridin-3-ylmethyl)-phenyl]-3-(3-trifluoromethyl-phenyl)-urea]
≥ 5.00: c-Raf-1

CCCS(=O)(=O)Nc1ccc(F)c(C(=O)c2c[nH]c3ncc(-c4ccccc4)cc23)c1F [Compound P-0636, Propane-1-sulfonic acid [2,4-difluoro-3-(5-phenyl-1H-pyrrolo[2,3-b]pyridine-3-carbonyl)-phenyl]-amide]
≥ 5.00: c-Raf-1 | Jnk1 | Flt1

CCCC(=O)Nc1ccc(F)c(Cc2c[nH]c3ncc(-c4cccnc4)cc23)c1F [Compound P-1280]
≥ 5.00: Src | Jnk1 | Fak
